Read-outs that look alike come from different tables or passages of the source.
Legend:
[1] = rabbit plasma, 37° C.; for Sampling time/dissociation percent (%) 15 S / Sampling time/dissociation percent (%) 30 S: formula G derivatives; for Sampling time/dissociation percent (%) 15 s / Sampling time/dissociation percent (%) 30 s: formula F derivatives
Description: (§1) 0.1 ml samples were taken from each of the solutions, added respectively to 1 ml of blood plasma of rabbit (taken from New Zealand white rabbits, treated according to conventional methods, anticoagulated with heparin) or 1 ml of blood plasma of rat (taken from live SD rats, treated according to conventional methods, anticoagulated with heparin), homogeneously mixed, and placed in a thermostatic water bath at 37° C. for incubation with time being recorded. Samples were taken at different time points after the experiment began, and 2 ml of acetonitrile was immediately added. The samples were shaken and centrifuged for 5 min (15,000 rpm), and the supernatant was then taken for HPLC analysis.

[2] = rat plasma, 37° C.
Description: as §1

[3] = test system: human prostate cancer PC-3; conditions: PC-3 xenograft, nude mice, 13 mg/kg, D0 IV, single dose;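 also: PC-3 tumors were established by implanting the cells under the skin of nude mice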
Description: Test of the inhibitory activity of the water soluble cabazitaxel derivatives on subcutaneously xenografted tumor of human prostate cancer PC-3 in nude mice: evaluating and comparing the inhibitory activity of the water soluble cabazitaxel derivatives and cabazitaxel on subcutaneously xenografted tumor of human prostate cancer PC-3 in nude mice.
Human prostate cancer PC-3 cells were subcutaneously inoculated into nude mice. After the tumor volume reached 100-150 mm^3, the animals were randomly divided into several groups, and administered with the water soluble cabazitaxel derivatives of the present invention and cabazitaxel, respectively once on the same day (D0). The tumor volume was measured 2-3 times per week, the animals were weighed and the data were recorded until day 20 (D20) after grouping.
(§2) The tumor volume (V) was calculated according to the equation: V=½×a×b^2, wherein a and b represent the length and the width, respectively.
(§3) T/C (%)=(T−T0)/(C−C0)×100, wherein T and C represent the tumor volume at the end of the experiment; and T0 and C0 represent the tumor volume at the beginning of the experiment.

[4] = test system: human ovarian cancer SK-OV-3; conditions: 24 mg/kg (paclitaxel 16 mg/kg) D0-4 IV
Description: Test of the inhibitory activity of the water soluble paclitaxel derivatives on subcutaneously xenografted tumor of human ovarian cancer SK-OV-3 in nude mice: evaluating and comparing the inhibitory activity of the water soluble paclitaxel derivatives of the present invention, paclitaxel and Abraxane® on subcutaneously xenografted tumor of human ovarian cancer SK-OV-3 in nude mice.
Human ovarian cancer SK-OV-3 cells were subcutaneously inoculated to nude mice. After the tumor volume reached 100-150 mm^3, the animals were randomly divided into groups (D0), and administered with the water soluble paclitaxel derivatives of the present invention, paclitaxel, and Abraxane®, respectively once per day for 5 days. The tumor volume was measured 2-3 times per week, the animals were weighed and the data were recorded until day 22 (D22) after grouping.
as §2, §3

[5] = In vitro dissociation of the water soluble taxane derivatives in blood plasma of rat; type: in vitro ADME, SD rats; conditions: 37° C.
Description: The obtained water soluble taxane derivatives were formulated as 0.2 mg/ml aqueous solutions. […] After 2 min, 5 min and 10 min of incubation, 0.2 ml of solutions were respectively taken from each of the samples, and added to acetonitrile (0.4 ml) cooled to −20° C. for precipitation of protein.

[6] = In vitro dissociation of the water soluble taxane derivatives in blood plasma of rabbit; type: in vitro ADME, New Zealand white rabbits; conditions: 37° C.
Description: The obtained water soluble taxane derivatives were formulated as 0.2 mg/ml aqueous solutions. […] After 5 min, 20 min and 60 min of incubation, 0.2 ml of solutions were respectively taken from each of the samples, and added to acetonitrile (0.4 ml) cooled to −20° C. for precipitation of protein.

Row | Compound | Sampling time/dissociation percent (%) 15 s [1] [%] | Sampling time/dissociation percent (%) 30 s [1] [%] | Sampling time/dissociation percent (%) 5 s ([2]; formula F derivatives) [%] | dissociation percent ([1]; 15 s) [%] | dissociation percent ([1]; 30 s) [%] | dissociation percent ([2]; 5 s) [%] | further results
1 | CC(C)c1cccc(C(C)C)c1OC(=O)[C@@H](CCOP(=O)([O-])[O-])C(F)(F)F.[Li+].[Li+] [Compound G3, {1-[4-(2,6-diisopropylphenoxy)-4-oxo-3-(R)-3-trifluoromethyl-1-butyl]} phosphate monoester dilithium salt] |  |  |  |  |  |  | Sampling time/dissociation percent (%) 15 S [1]: 21.7%; Sampling time/dissociation percent (%) 30 S [1]: 43.6%; Sampling time/dissociation percent (%) 5 S ([2]; formula G derivatives): 38.7%
2 | CCN(C)CC[C@@H](F)C(=O)O[C@@H](C(=O)O[C@H]1C[C@@]2(O)[C@@H](OC(=O)c3ccccc3)[C@@H]3[C@]4(OC(C)=O)CO[C@@H]4C[C@H](OC)[C@@]3(C)C(=O)[C@H](OC)C(=C1C)C2(C)C)[C@@H](NC(=O)OC(C)(C)C)c1ccccc1.O=C(O)/C=C\C(=O)O [Compound 30, 2′-O-[4-(N-methyl-N-ethyl)amino-2(R)-fluorobutyryl]cabazitaxel maleate] |  |  |  |  |  |  | T/C (%) D20 ([3]; D20): −56%
3 | CC(C)c1cccc(C(C)C)c1OC(=O)C(F)CCC(=O)[O-].[K+] [Compound F2, propofol 4-carboxyl-2(S)-fluorovalerate potassium salt] | 73.4 | 94.8 | 92.3 |  |  |  | 
4 | CC(C)NCC(CF)C(=O)Oc1c(C(C)C)cccc1C(C)C.CS(=O)(=O)O (racemic) [Compound E6, propofol 3-(N-isopropyl)amino-2(R,S)-2-monofluoromethylpropionate methanesulfonate] |  |  |  | 27.1 | 44.3 | 24.2 | dissociation percent ([2]; 15 s): 40.1%
5 | CC(C)c1cccc(C(C)C)c1OC(=O)C(F)CCOP(=O)([O-])[O-].[K+].[K+] (racemic) [Compound G1, {1-[4-(2,6-diisopropylphenoxy)-4-oxo-3-(R,S)-3-fluoro-1-butyl]} phosphate monoester dipotassium salt] |  |  |  |  |  |  | Sampling time/dissociation percent (%) 15 S [1]: 43.7%; Sampling time/dissociation percent (%) 30 S [1]: 68.7%; Sampling time/dissociation percent (%) 5 S ([2]; formula G derivatives): 54.1%; Sampling time/dissociation percent (%) 15 S ([2]; formula G derivatives): 67.4%; Sampling time/dissociation percent (%) 30 S ([2]; formula G derivatives, sampling time 30 s): 86.9%
6 | CC(C)c1cccc(C(C)C)c1OC(=O)C(CF)CP(=O)([O-])[O-].CC(C)c1cccc(C(C)C)c1OC(=O)C(CF)CP(=O)([O-])[O-].CC(C)c1cccc(C(C)C)c1OC(=O)C(CF)CP(=O)([O-])[O-].[Al+3].[Al+3] (racemic) [Compound G6, tri[propofol 3-phosphoryl-2(R,S)-2-monofluoromethylpropionate] dialuminum salt] |  |  |  |  |  |  | Sampling time/dissociation percent (%) 15 S [1]: 27.1%; Sampling time/dissociation percent (%) 30 S [1]: 44.3%; Sampling time/dissociation percent (%) 5 S ([2]; formula G derivatives): 22.1%; Sampling time/dissociation percent (%) 15 S ([2]; formula G derivatives): 39.7%
7 | CO[C@H]1C(=O)[C@]2(C)[C@@H](OC)C[C@H]3OC[C@@]3(OC(C)=O)[C@H]2[C@H](OC(=O)c2ccccc2)[C@]2(O)C[C@H](OC(=O)[C@H](OC(=O)[C@H](F)CCCN(C)C)[C@@H](NC(=O)OC(C)(C)C)c3ccccc3)C(C)=C1C2(C)C.Cl [Compound 35, 2′-O-[5-(N,N-dimethyl)amino-2(R)-fluorovaleryl]cabazitaxel hydrochloride] |  |  |  |  |  |  | Tumor volume (mm^3) (D0) ([3]; D0 (baseline at grouping)): 112.9 ± 4.4 mm^3; Weight change (%) D6 ([3]; D6): −16.6%; T/C (%) D20 ([3]; D20): −28%; Tumor inhibitory percent (%) D20 ([3]; D20): 64%; Tumor volume (mm^3) (D20) ([3]; D20): 55.3 ± 13.8 mm^3
8 | CC(C)c1cccc(C(C)C)c1OC(=O)[C@H](F)CCN1CCCC1.Cl [Compound E8, propofol 4-(pyrrolidin-1-yl)-2(R)-2-fluorobutyrate hydrochloride] |  |  |  | 91.1 | 98.2 | 95.6 | 
9 | CC(C)c1cccc(C(C)C)c1OC(=O)C(F)CCN(C)C.Cl (racemic) [Compound E1, Propofol 4-(N,N-dimethyl)amino-2(R,S)-fluorobutyrate Hydrochloride] |  |  |  | 67.5 | 85.5 | 75.1 | dissociation percent ([2]; 15 s): 83.2%; dissociation percent ([2]; 30 s): 96.7%
10 | CC(C)c1cccc(C(C)C)c1OC(=O)C(CF)CCCCCCC(=O)[O-].CC(C)c1cccc(C(C)C)c1OC(=O)C(CF)CCCCCCC(=O)[O-].CC(C)c1cccc(C(C)C)c1OC(=O)C(CF)CCCCCCC(=O)[O-].[Al+3] (racemic) [Compound F6, tri[propofol 8-carboxyl-2(R,S)-monofluoromethylpelargonate] aluminum salt] | 37.1 | 58.3 | 34.2 |  |  |  | Sampling time/dissociation percent (%) 15 s ([2]; formula F derivatives): 55.7%
11 | CC(C)c1cccc(C(C)C)c1OC(=O)[C@@H](CCN(C)C)C(F)(F)F.Cl [Compound E3, propofol 4-(N,N-dimethyl)amino-2(R)-2-trifluoromethylbutyrate hydrochloride] |  |  |  | 51.7 | 67.2 | 77.5 | 
12 | CC(C)c1cccc(C(C)C)c1OC(=O)C(F)CCCC(=O)[O-].CC(C)c1cccc(C(C)C)c1OC(=O)C(F)CCCC(=O)[O-].[Zn+2] [Compound F5, di[propofol 5-carboxyl-2(S)-fluorohexanoate] zinc salt] | 34.9 | 58.8 | 63.2 |  |  |  | Sampling time/dissociation percent (%) 15 s ([2]; formula F derivatives): 80.3%
13 | CC(=O)O[C@H]1C(=O)[C@@]2(C)[C@H]([C@H](OC(=O)c3ccccc3)[C@]3(O)C[C@H](OC(=O)[C@H](OC(=O)[C@H](F)CCN(C)C)[C@@H](NC(=O)c4ccccc4)c4ccccc4)C(C)=C1C3(C)C)[C@]1(OC(C)=O)CO[C@@H]1C[C@@H]2O.CS(=O)(=O)O [Compound C1, 2′-O-[4-(N,N-dimethyl)amino-2(R)-fluorobutyryl]paclitaxel methanesulfonate] |  |  |  |  |  |  | Tumor volume (D0) ([4]; D0, at grouping): 133.6 ± 9.5 mm^3; Weight change (%) D4 ([4]; D4): −5.9%; T/C (%) D22 ([4]; D22): −63%; Tumor inhibitory percent (%) D22 ([4]; D22, P=0.000 compared to the control): 163%; dissociation percent ([5]; 2 min): 64.3%; dissociation percent ([5]; 5 min): 97.0%; dissociation percent ([5]; 10 min): 100%; dissociation percent ([6]; 5 min): 77.2%; dissociation percent ([6]; 20 min): 98.4%; dissociation percent ([6]; 60 min): 100%
14 | CC(C)c1cccc(C(C)C)c1OC(=O)[C@@H](F)CCCN(C)Cc1ccccc1.Cl [Compound E5, propofol 5-(N-methyl-N-benzyl)amino-2(S)-2-fluorovalerate hydrochloride] |  |  |  | 48.4 | 69.7 | 72.3 | dissociation percent ([2]; 15 s): 97.3%
15 | CC(C)c1cccc(C(C)C)c1OC(=O)C(CCC(=O)[O-])C(F)(F)F.[Li+] [Compound F3, propofol 4-carboxyl-2(R)-2-trifluoromethyl valerate lithium salt] | 28.4 | 47.9 | 47.4 |  |  |  | 
16 | CC(C)c1cccc(C(C)C)c1OC(=O)C(F)C(=O)[O-].[Na+] [Compound F8, propofol 2-carboxyl-2(S)-fluoropropionate sodium salt] | 41.2 | 70.4 | 55.5 |  |  |  | Sampling time/dissociation percent (%) 15 s ([2]; formula F derivatives): 69.3%; Sampling time/dissociation percent (%) 30 s ([2]; formula F derivatives, sampling time 30 s): 83.3%
17 | CC(C)c1cccc(C(C)C)c1OC(=O)[C@@H](F)CCN1CC1.Cl [Compound E7, propofol 4-N-(aziridin-1-yl)-2(S)-2-fluorobutyrate hydrochloride] |  |  |  | 89.4 | 94.4 | 92.3 | 
18 | CC(C)c1cccc(C(C)C)c1OC(=O)C(F)CCCCCC(=O)[O-].CC(C)c1cccc(C(C)C)c1OC(=O)C(F)CCCCCC(=O)[O-].[Ca+2] (racemic) [Compound F4, di[propofol 7-carboxyl-2(R,S)-fluorocaprylate] calcium salt] | 48.3 | 61.7 | 63.8 |  |  |  | 
19 | CCN(C)CCC(F)C(=O)Oc1c(C(C)C)cccc1C(C)C.Cl (racemic) [Compound E4, propofol 4-(N-methyl-N-ethyl)amino-2(R,S)-2-fluorobutyrate hydrochloride] |  |  |  | 58.3 | 70.4 | 70.2 | 
